Reference: paper PMC7758046, “Novel piperazine–chalcone hybrids and related pyrazoline analogues targeting VEGFR-2 kinase; design, synthesis, molecular docking studies, and anticancer evaluation” (Journal of Enzyme Inhibition and Medicinal Chemistry, 2020)

| Compound | melting point [°C] |
| --- | --- |
| O=C(C=Cc1cc([N+](=O)[O-])ccc1O)c1ccc(N2CCNCC2)cc1 [Vg, 3-(2-Hydroxy-5-nitrophenyl)-1-(4-(piperazin-1-yl)phenyl)prop-2-en-1-one] | 185 |
| O=C(C=Cc1ccco1)c1ccc(N2CCNCC2)cc1 [Vh, 3-(Furan-2-yl)-1-(4-(piperazin-1-yl)phenyl)prop-2-en-1-one] | 190 |
| N#Cc1ccccc1C=CC(=O)c1ccc(N2CCNCC2)cc1 [Va, 2-(3-Oxo-3-(4-(piperazin-1-yl)phenyl)prop-1-enyl)benzonitrile] | 150 |
| N#Cc1ccc(C=CC(=O)c2ccc(N3CCNCC3)cc2)cc1 [Vb, 4-(3-Oxo-3–(4-(piperazin-1-yl)phenyl)prop-1-enyl)benzonitrile] | 170 |
| O=C(C=Cc1ccccc1F)c1ccc(N2CCNCC2)cc1 [Vc, 3-(2-Fluorophenyl)-1-(4-(piperazin-1-yl)phenyl)prop-2-en-1-one] | 176 |
